The values below are quoted from earlier work in US20070208072A1, “Maleate salt of tegaserod and crystalline forms thereof” (priority 2006, published 2007).

The conditions of this data set: white to off-white crystalline powder.

Regarding `CCCCCNC(=N)N/N=C/c1c[nH]c2ccc(OC)cc12.O=C(O)/C=C\C(=O)O` [Tegaserod maleate], where the note is “ethanol”, the solubility in ethanol result was “slightly soluble”. The solubility in water result (water) is on record as “very slightly soluble”.
